The text below walks through data of patent US20030108512A1, “Modified prostaglandin compounds and analogs thereof, compositions containing the same useful for the treatment of cancer” (priority 2001, published 2003).

One test concerns LOX cells. The test is described as follows: Apoptosis assay (Vybrant Apoptosis Assay Kit #4, YO-PRO). The class given is cell-based, human. Particulars: overnight, n=4, FIGS. 9-11. On the procedure:
An apoptosis assay marketed as Vybrant Apoptosis Assay Kit #4 from Molecular Probes, Inc., was obtained for the test.
The LOX cell cultures were incubated overnight.
The apoptosis assay was performed four times (n=4) for each test compound.

For test [1], the system named is human amelanotic melanoma cell line (LOX). The test is described as follows: Collagen degradation inhibition assay (fluorescent-labelled Type I collagen matrix seeded with tumor cells). It is filed as cell-based. The note with it: n=4, FIGS. 2-4; for IC50: LOX cells on labelled Type I collagen film; for dosage at which collagen degradation activity by LOX cells was inhibited: dosages tested about 10^−6 to 10^3 μM. An excerpt:
The assay for screening antimetastatic agents is comprised of a collagenous matrix comprising collagenous components including but not limited to Type I or Type VI collagen or denatured collagen such as gelatin to form a scaffold-matrix. The scaffold matrix is subsequently coated with blood-borne components such as fibronectin, laminin, and fibrin for inducing adherence of the tumor cells and thereafter, labeled with quench fluorescent dyes. During performance of the assay, tumor cells that are present, adhere, ingest and invade the labeled scaffold-matrix resulting in the release of highly fluorescent peptides. Generally, tumor cells include a specific cell structure typically comprised of tentacles or arms (i.e. invadopodia) which secrete specific digestive enzymes including seprase, dipeptidyl peptidase IV (DPPIV), membrane Type-1 matrix metalloproteinases, and the like, to breakdown the collagen matrix. The fluorescence becomes visible only in the presence of these specific digestive enzymes produced by the tumor cells and increases in proportion to the activity of the digestive enzymes, thus providing a qualitative/quantitative measure of the invasiveness of the tumor cells. Other labeling methods including, but not limited to the use of, biotin, color dyes, and radioactive probes may also be used. As described herein, the assay utilizes a thin coating of collagen labeled with a fluorescent dye probe to form a scaffold collagen matrix, and tumor cells. The scaffold collagen matrix simulates the extracellular environment that is attacked by tumor cells during metastasis. The tumor cells attack the matrix by secreting proteolytic enzymes that break the collagen into peptide fragments. The peptide fragments release the fluorescent dye probe, and fluorescent light is emitted. The observed light intensity of the fluorescence correlates proportionally with the collagen degradation activity of the tumor cells. The tumor cells used in the test samples were generated from a human amelanotic melanoma cell line (LOX). A solution of a Type I collagen was prepared at a concentration of about 3.56 mg/ml. The collagen solution was used to form a coating of a monolayer of Type I collagen on a 96-well microtiter plate. […] Fluorescence readings were made using a microtiter plate fluorescence reader set at 485 nm/538 nm (Ex/Em). […] The collagen degradation activity of the LOX cells was detected through the cleavage and release of fluorescent collagen peptides from the labeled collagen matrix film as described above. A positive fluorescence signal, ΔF indicates the presence of collagen degradation activity. […]

As to `CCCCCC(O)CC[C@@H]1C2Cc3cccc(OCC(=O)O)c3CC2C[C@H]1O` (stereo partly drawn) [Compound V, reference compound], the “dosages giving a marked increase in the incidence of apoptosis” value in the test with LOX cells is “over 100 μM”. In test [1] (Homo sapiens), this molecule registered an IC50 of 10 nM. Further, the “dosage at which collagen degradation activity by LOX cells was inhibited” value in test [1] was “about 2.5×10^−3 μM”.

In the case of `CNC(=O)[C@H](Cc1ccccc1)NC(=O)[C@H](CC(C)C)[C@H](CSc1cccs1)C(=O)NO` [MMP inhibitor, BATIMASTAT®, reference compound], in the test on LOX cells, the “dosages causing LOX cells to enter apoptosis” value is recorded as “over 2 μM”. Also, in test [1], half-maximal inhibition (IC50) required 0.2 nM and the “dosage at which collagen degradation activity by LOX cells was inhibited” value is “over 10^−4 μM”.
